Patent US20240262806A1, “INHIBITORS OF NLRP3” (PTC THERAPEUTICS, INC., priority 2021, published 2024)

The molecules below were run on NLRP3 inflammasome (assay: IL-1β Secretion Assay (NLRP3-dependent IL-1β secretion in PMA-differentiated THP-1 cells, nigericin activation, HTRF)). Details: Homo sapiens, THP-1, THP-1 cells, 100 ng/mL PMA 24 h, compound 20 h, 2.5 μM Nigericin 3 h; read-out: IC50 IL-1β Inhibition.
Format: cell-based
How it was run: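 PMA-differentiated THP-1 cells in RPMI with 5% FBS were treated with compounds at 7 concentrations in threefold DMSO dilutions. NLRP3 was activated with nigericin and secreted IL-1β measured by HTRF. IC50 from a logistic fit of percent inhibition versus concentration.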
`Cc1cnc(-c2nnc(N[C@@H]3CCCN(C)C3)c3cnccc23)c(O)c1` [Compound I-195] was tested, and the IC50 was 0.001 to 0.01 µM. `CN1CCC[C@@H](Nc2nnc(-c3ccc(C(F)(F)F)cc3)c3ccncc23)C1` [Compound I-166] showed an IC50 of 0.001 to 0.01 µM. For `CCN1CCC[C@@H](Nc2nnc(-c3ccc(C4CC4)cc3O)c3c(F)ccn23)C1` [Compound I-600], the IC50 was < 0.001 µM. With `CN1CC[C@@H](F)[C@@H](Nc2nnc(-c3ccc(C(F)(F)F)cc3O)c3ccncc23)C1` [Compound I-315] the IC50 was < 0.001 µM. `OCCN1CCC[C@@H](Nc2nnc(-c3ccc(C(F)(F)F)cc3OC(F)F)c3cccn23)C1` [Compound I-325, 2-[(3R)-3-[[1-[2-(Difluoromethoxy)-4-(trifluoromethyl)phenyl]pyrrolo[1,2-d][1,2,4]triazin-4-yl]amino]-1-piperidyl]ethanol] gave an IC50 of 0.001 to 0.01 µM. `CN1CCC[C@@H](Nc2nnc(-c3ccc(C4CCOC4)cc3O)c3ccccc23)C1` (stereo partly shown) [Compound I-61] showed an IC50 of 0.001 to 0.01 µM. `Cc1cc(F)c(-c2nnc(N[C@@H]3CCCN(C4CCOCC4)C3)n3cccc23)c(OC(F)F)c1` [Compound I-475] showed an IC50 of 0.01 to 0.1 µM. Molecule `OCCN1CCCC[C@@H](Nc2nnc(-c3ccc(C(F)(F)F)cc3O)c3ccncc23)C1` [Compound I-317] has an IC50 of 0.001 to 0.01 µM. With `Oc1cc(C(F)(F)F)ccc1-c1nnc(N[C@H]2CNC[C@@H](O)C2)c2ccccc12` [Compound I-53] the IC50 was 0.001 to 0.01 µM. Work on `COc1cc(C(F)(F)F)ccc1-c1nnc(N2CCNCC2)c2ccncc12` [Compound I-153] yielded an IC50 of 0.01 to 0.1 µM. In the case of `CN1CCC[C@@H](Nc2nnc(-c3ccc(C4CC4)cc3O)c3ccncc23)C1` [Compound I-89], the IC50 is reported as < 0.001 µM. `OCCN1CCC[C@@H](Nc2nnc(-c3ccc(C(F)(F)F)cc3O)c3cnccc23)C1` [Compound I-101] was tested, and the IC50 was < 0.001 µM. For `COc1c(C2CC2)ccc(F)c1-c1nnc(N[C@@H]2CCCN(C)C2)c2cnccc12` [Compound I-208], the IC50 was 0.01 to 0.1 µM. For `C[C@H](O)CNc1nnc(-c2ccc(C(F)(F)F)cc2OC(F)F)c2cccn12` [Compound I-389], the IC50 was 0.001 to 0.01 µM. For `CC(C)(O)CNc1nnc(-c2ccc(C(F)(F)F)cc2OC(F)F)c2cccn12` [Compound I-536], the IC50 was 0.01 to 0.1 µM. With `CN1CCC[C@@H](Nc2nnc(-c3c(O)cc(C4CC4)cc3F)c3c(F)ccn23)C1` [Compound I-601] the IC50 was < 0.001 µM. `CN1CCC[C@@H](Nc2nnc(-c3ccc(Cl)cc3C#N)c3ccncc23)C1` [Compound I-157] gave an IC50 of 0.001 to 0.01 µM. In the case of `COc1cc(O)c(-c2nnc(N[C@@H]3CCCN(C)C3)n3cccc23)c(F)c1` [Compound I-456], the IC50 is reported as < 0.001 µM. With `C[C@H](O)CNc1nnc(-c2c(O)cc(Cl)cc2F)c2cccn12` [Compound I-577] the IC50 was 0.01 to 0.1 µM. Work on `CN1CCC[C@@H](Nc2nnc(-c3ccc(C(F)(F)F)cc3C#N)c3ccccc23)C1` [Compound I-131] yielded an IC50 of 0.001 to 0.01 µM. In the case of `Cc1ccc(-c2nnc(N[C@@H]3CCCN(C)C3)c3cnccc23)c(C#N)c1` [Compound I-136], the IC50 is reported as 0.001 to 0.01 µM. For `Oc1cc(C(F)(F)F)ccc1-c1nnc(N[C@H]2CNC[C@H](F)C2)c2cnccc12` [Compound I-306], the IC50 was < 0.001 µM. Molecule `FC(F)(F)c1ccc(-c2nnc(N[C@@H]3CCCN(C4CCOCC4)C3)n3cccc23)c(C(F)(F)F)c1` [Compound I-516] has an IC50 of 0.001 to 0.01 µM. For `CN1C[C@@H](O)C[C@@H](Nc2nnc(-c3ccc(C(F)(F)F)cc3O)c3ccccc23)C1` [Compound I-63], the IC50 was 0.001 to 0.01 µM. In the case of `CN1CCC[C@@H](Nc2nnc(-c3ccc(C(F)(F)F)nc3O)c3ccccc23)C1` [Compound I-75], the IC50 is reported as 0.01 to 0.1 µM. Molecule `C[C@@H](O)CNc1nnc(-c2ccc(C(F)(F)F)cc2O)c2cccn12` [Compound I-588] has an IC50 of 0.01 to 0.1 µM. With `CCN1CCC[C@H](Nc2nnc(-c3c(O)cc(C4CC4)cc3F)c3cc(C)nn23)C1` [Compound I-554] the IC50 was < 0.001 µM. Molecule `Oc1cc(C2CC2)cc(F)c1-c1nnc(N[C@@H]2CCC[C@H](O)C2)n2cccc12` [Compound I-424] has an IC50 of 0.001 to 0.01 µM. With `CN1CCC[C@@H](Cc2nnc(-c3ccc(C(F)(F)F)cc3O)c3ccccc23)C1` [Compound I-96, (S)-2-(4-((1-methylpiperidin-3-yl)methyl)phthalazin-1-yl)-5-(trifluoromethyl)phenol] the IC50 was > 0.3 µM. In the case of `Cc1cc2c(N[C@@H]3CCCN(CCO)C3)nnc(-c3ccc(C(F)(F)F)cc3O)n2n1` [Compound I-338], the IC50 is reported as 0.01 to 0.1 µM. `CN1CCC[C@@H](Nc2nnc(-c3c(O)cc(C4CC4)cc3F)c3cccn23)C1` [Compound I-380] was tested, and the IC50 was < 0.001 µM. With `CN1C[C@H](F)C[C@@H](Nc2nnc(-c3c(O)cc(Cl)cc3F)c3cccn23)C1` [Compound I-481] the IC50 was 0.001 to 0.01 µM. `Oc1cc(C(F)(F)F)ccc1-c1nnc(NC2CNCCOC2)c2ccncc12` (stereo not shown) [Compound I-230] gave an IC50 of 0.01 to 0.1 µM. `CN1CCC[C@@H](N(C)c2nnc(-c3ccc(C(F)(F)F)cc3O)c3c2CCCC3)C1` [Compound I-47, 2-[4-[Methyl-[(3R)-1-methyl-3-piperidyl]amino]-5,6,7,8-tetrahydrophthalazin-1-yl]-5-(trifluoromethyl)phenol] was tested, and the IC50 was < 0.001 µM. For `CN1CCC[C@H](Nc2nnc(-c3c(O)cccc3Cl)c3ccncc23)C1` [Compound I-139], the IC50 was 0.001 to 0.01 µM. `COC(C)(C)CNc1nnc(-c2ccc(C(F)(F)F)cc2OC(F)F)c2cccn12` [Compound I-568] showed an IC50 of 0.001 to 0.01 µM. Molecule `C[C@]1(O)C[C@@H](Nc2nnc(-c3c(O)cc(OC(F)F)cc3F)c3cccn23)C1` [Compound I-618] has an IC50 of 0.01 to 0.1 µM. For `CC(C)(O)CN1CCC[C@@H](Nc2nnc(-c3c(O)cc(C(F)(F)F)cc3F)c3cccn23)C1` [Compound I-417], the IC50 was 0.001 to 0.01 µM. With `CCOc1cc(O)c(-c2nnc(N[C@@H]3C[C@@H](F)CN(C)C3)n3cccc23)c(F)c1` [Compound I-631] the IC50 was 0.01 to 0.1 µM. In the case of `Oc1cc(C(F)(F)F)ccc1-c1nnc(NCCN2CCOCC2)c2ccccc12` [Compound I-108], the IC50 is reported as 0.01 to 0.1 µM. For `CN1CCC[C@@H](Nc2nnc(-c3ccc(C(F)(F)F)cc3OC(F)F)c3ccncc23)C1` [Compound I-121], the IC50 was < 0.001 µM. `CC(C)(O)CN1CCC[C@@H](Nc2nnc(-c3ccc(C(F)(F)F)cc3O)c3ccncc23)C1` [Compound I-286] was tested, and the IC50 was < 0.001 µM. In the case of `Cc1cc(O)c(-c2nnc(N[C@@H]3CCC[C@H](O)C3)n3cccc23)c(F)c1` [Compound I-422], the IC50 is reported as 0.001 to 0.01 µM. With `CC(C)N1CCC[C@@H](Nc2nnc(-c3ccc(C(F)(F)F)cc3C(F)(F)F)c3cccn23)C1` [Compound I-530] the IC50 was < 0.001 µM. Work on `CN1CCC[C@@H](Nc2nnc(-c3ccccc3O)c3ccccc23)C1` [Compound I-33] yielded an IC50 of 0.001 to 0.01 µM. `Oc1cc(C2CC2)cc(F)c1-c1nnc(N[C@@H]2CCCOC2)n2cccc12` [Compound I-423] was tested, and the IC50 was 0.01 to 0.1 µM. In the case of `FC(F)Oc1cc(C(F)(F)F)ccc1-c1nnc(N[C@H]2CCOC2)n2cccc12` [Compound I-458], the IC50 is reported as 0.1 to 0.3 µM. `Cc1cc(F)c(-c2nnc(N[C@@H]3CCCN(CC(C)(C)O)C3)n3cccc23)c(OC(F)F)c1` [Compound I-476] gave an IC50 of 0.1 to 0.3 µM. `CN1CCC[C@@H](Nc2nnc(-c3c(O)cc(Cl)cc3F)c3cccn23)C1` [Compound I-432] was tested, and the IC50 was < 0.001 µM. In the case of `Oc1cc(C(F)(F)F)ccc1-c1nnc(N[C@@H]2CCCNC2)c2c1CCCCC2` [Compound I-31, (R)-2-(4-(Piperidin-3-ylamino)-6,7,8,9-tetrahydro-5H-cyclohepta[d]pyridazin-1-yl)-5-(trifluoromethyl)phenol], the IC50 is reported as < 0.001 µM. With `CCN1CCC[C@@H](Nc2nnc(-c3ccc(OC)cc3C(F)(F)F)c3cccn23)C1` [Compound I-392] the IC50 was 0.001 to 0.01 µM. `CN1CCC[C@H](Cc2nnc(-c3ccc(C(F)(F)F)cc3O)c3ccccc23)C1` [Compound I-97, (R)-2-(4-((1-methylpiperidin-3-yl)methyl)phthalazin-1-yl)-5-(trifluoromethyl)phenol] was tested, and the IC50 was < 0.001 µM. For `CN1CCC[C@@H](Nc2nnc(-c3ccc(Cl)c(N)c3O)c3ccccc23)C1` [Compound I-163, (R)-2-Amino-3-chloro-6-(4-((1-methylpiperidin-3-yl)amino)phthalazin-1-yl)phenol], the IC50 was 0.01 to 0.1 µM. `CN1CCC[C@@H](Nc2nnc(-c3ccc(-n4nccn4)cc3O)c3ccncc23)C1` [Compound I-137] was tested, and the IC50 was < 0.001 µM. For `CN1CCC[C@@H](Nc2nnc(-c3ccc(OC(F)(F)F)cc3C(F)F)c3ccncc23)C1` [Compound I-319], the IC50 was 0.001 to 0.01 µM. For `CN1CCC[C@@H](Nc2nnc(-c3ccc(C(F)(F)F)cc3OC(F)F)c3c2CCC3)C1` [Compound I-236], the IC50 was 0.001 to 0.01 µM. `CN1CCC[C@@H](Nc2nnc(-c3ccc(C(F)(F)F)cc3O)c3c2N(C)CCO3)C1` [Compound I-117] gave an IC50 of 0.01 to 0.1 µM. Work on `CN1CCC[C@@H](Nc2nnc(-c3ccc(C(F)(F)F)cc3OC(F)F)c3cc(C4CC4)nn23)C1` [Compound I-346] yielded an IC50 of 0.001 to 0.01 µM. With `Cc1nc(-c2ccc(-c3nnc(N[C@@H]4CCCNC4)c4ccccc34)c(O)c2)ns1` [Compound I-32] the IC50 was 0.01 to 0.1 µM. Molecule `CN1CCC[C@@H](Nc2nnc(-c3ccc(C(F)(F)F)cc3C3CC3)c3ccncc23)C1` [Compound I-194, (R)-1-(2-Cyclopropyl-4-(trifluoromethyl)phenyl)-N-(1-methylpiperidin-3-yl)pyrido[3,4-d]pyridazin-4-amine] has an IC50 of 0.001 to 0.01 µM. Work on `Oc1cc(OC(F)(F)F)ccc1-c1nnc(N[C@@H]2CCCNC2)n2cccc12` [Compound I-365] yielded an IC50 of 0.01 to 0.1 µM. Molecule `Cc1cc2c(-c3ccc(C4CC4)cc3O)nnc(N[C@@H]3CCCN(C)C3)n2n1` [Compound I-327] has an IC50 of 0.001 to 0.01 µM. Molecule `CC(C)(O)CN1CCC[C@@H](Nc2nnc(-c3ccc(Cl)cc3O)c3cccn23)C1` [Compound I-403] has an IC50 of 0.01 to 0.1 µM.

Same assay, conditions: THP-1 cells, 100 ng/mL PMA 24 h, compound 20 h, 2.5 μM Nigericin 3 h; read-out: IC50 IL-1β Inhibition
For `Cc1cc2c(-c3ccc(C4CC4)cc3OC(F)(F)F)nnc(N[C@@H]3CCCN(C)C3)n2n1` [Compound I-419, (R)-4-(4-Cyclopropyl-2-(trifluoromethoxy)phenyl)-2-methyl-N-(1-methylpiperidin-3-yl)pyrazolo[1,5-d][1,2,4]triazin-7-amine], the IC50 was 0.01 to 0.1 µM.
